# Measurements published in ChEMBL document CHEMBL2074202, “Biliary excretion of pravastatin in rats: contribution of the excretion pathway mediated by canalicular multispecific organic anion transporter” (Drug Metab Dispos, 1997).
# B1: ATP-binding cassette sub-family C member 2 (Rattus norvegicus) (protein)
# chain: MDKFCNSTFWDLSLLESPEADLPLCFEQTVLVWIPLGFLWLLAPWQLYSVYRSRTKRSSITKFYLAKQVFVVFLLILAAIDLSLALTEDTGQATVPPVRYTNPILYLCTWLLVLAVQHSRQWCVRKNSWFLSLFWILSVLCGVFQFQTLIRALLKDSKSNMAYSYLFFVSYGFQIVLLILTAFSGPSDSTQTPSVTASFLSSITFSWYDRTVLKGYKHPLTLEDVWDIDEGFKTRSVTSKFEAAMTKDLQKARQAFQRRLQKSQRKPEATLHGLNKKQSQSQDVLVLEEAKKKSEKTTKDYPKSWLIKSLFKTFHVVILKSFILKLIHDLLVFLNPQLLKLLIGFVKSSNSYVWFGYICAILMFAVTLIQSFCLQSYFQHCFVLGMCVRTTVMSSIYKKALTLSNLARKQYTIGETVNLMSVDSQKLMDATNYMQLVWSSVIQITLSIFFLWRELGPSILAGVGVMVLLIPVNGVLATKIRNIQVQNMKNKDKRLKIMNEILSGIKILKYFAWEPSFQEQVQGIRKKELKNLLRFGQLQSLLIFILQITPILVSVVTFSVYVLVDSANVLNAEKAFTSITLFNILRFPLSMLPMVTSSILQASVSVDRLERYLGGDDLDTSAIRRVSNFDKAVKFSEASFTWDPDLEATIQDVNLDIKPGQLVAVVGTVGSGKSSLVSAMLGEMENVHGHITIQGSTAYVPQQSWIQNGTIKDNILFGSEYNEKKYQQVLKACALLPDLEILPGGDMAEIGEKGINLSGGQKQRVSLARAAYQDADIYILDDPLSAVDAHVGKHIFNKVVGPNGLLAGKTRIFVTHGIHFLPQVDEIVVLGKGTILEKGSYRDLLDKKGVFARNWKTFMKHSGPEGEATVNNDSEAEDDDDGLIPTMEEIPEDAASLAMRRENSLRRTLSRSSRSSSRRGKSLKNSLKIKNVNVLKEKEKEVEGQKLIKKEFVETGKVKFSIYLKYLQAVGWWSILFIILFYGLNNVAFIGSNLWLSAWTSDSDNLNGTNNSSSHRDMRIGVFGALGLAQGICLLISTLWSIYACRNASKALHGQLLTNILRAPMRFFDTTPTGRIVNRFSGDISTVDDLLPQTLRSWMMCFFGIAGTLVMICMATPVFAIIIIPLSILYISVQVFYVATSRQLRRLDSVTKSPIYSHFSETVTGLPIIRAFEHQQRFLAWNEKQIDINQKCVFSWITSNRWLAIRLELVGNLVVFCSALLLVIYRKTLTGDVVGFVLSNALNITQTLNWLVRMTSEAETNIVAVERISEYINVENEAPWVTDKRPPADWPRHGEIQFNNYQVRYRPELDLVLKGITCNIKSGEKVGVVGRTGAGKSSLTNCLFRILESAGGQIIIDGIDVASIGLHDLRERLTIIPQDPILFSGSLRMNLDPFNKYSDEEVWRALELAHLRSFVSGLQLGLLSEVTEGGDNLSIGQRQLLCLGRAVLRKSKILVLDEATAAVDLETDSLIQTTIRKEFSQCTVITIAHRLHTIMDSDKIMVLDNGKIVEYGSPEELLSNRGSFYLMAKEAGIENVNHTEL
# Key:
# [1] = biological target: ATP-binding cassette sub-family C member 2 (Rattus norvegicus, UniProt Q63120); experiment: TP_TRANSPORTER: inhibition of DNP-SG uptake in bile canalicular membrane vesicles from SD rat; format: functional, cell membranes, Sprague-Dawley, Bile canalicular membrane vesicle
# [2] = substrate: CC[C@H](C)C(=O)O[C@H]1C[C@H](O)C=C2C=C[C@H](C)[C@H](CC[C@@H](O)C[C@@H](O)CC(=O)O)[C@H]21; experiment: TP_TRANSPORTER: uptake in bile canalicular membrane vesicles from SD rat; format: functional, cell membranes, Sprague-Dawley, Bile canalicular membrane vesicle
Molecule,Ki [1] [µM],Km [2] [µM]
CC[C@H](C)C(=O)O[C@H]1C[C@H](O)C=C2C=C[C@H](C)[C@H](CC[C@@H](O)C[C@@H](O)CC(=O)O)[C@H]21 [PRAVASTATIN],172,
B1,,223
